From patent publication US7982047B2, “Derivatives of 1,3-diones having a herbicidal activity” (Isagro Ricerca S.r.l., priority 2003, dated 2011)

Legend:
Abutilon theofrasti [1] = experiment: Post-emergence herbicidal activity; assay type: in vivo; settings: 500 g/ha, evaluated fifteen days after the treatment, damage vs blank
Description: (§1) Determination of the Herbicidal Activity and Phyto-Toxicity in Post-emergence The herbicidal activity of the compounds of the invention in post-emergence was evaluated according to the following operative procedures. The plant species of interest (weeds or crops) were sown in pots with an upper diameter of 10 cm, a height of 10 cm and containing sandy soil. 10 pots were used for each plant species. Water was added to each pot in such a quantity as to germinate the seeds. The pots were divided into two groups, each containing 5 pots for each weed or crop. Fifteen days after sowing (ten, in the case of wheat), when the weeds and crops, according to the species, were 10-15 cm high, the first set of pots was treated with a hydro-acetonic dispersion containing acetone at 10% in volume, the product under evaluation at the desired concentration and Tween 20 at 0.5%. The second set was treated with a hydro-acetonic solution only, containing acetone at 10% in volume and Tween 20 at 0.5%, and was used as comparison (blank). All pots were kept under observation in a conditioned environment under the following conditions: • temperature: 24° C.; • relative humidity: 60%; • photo-period: 16 hours; • light intensity: 10000 lux. The pots were uniformly watered every other day so as to ensure a humidity degree sufficient for a good development of the plants. The herbicidal activity was evaluated fifteen days after the treatment, on the basis of the following values which refer to the percentage of damage tested on the treated plants with respect to the non-treated plants (blank): [table]

Solanum nigrum [2] = experiment: Post-emergence herbicidal activity; assay type: in vivo; settings: 500 g/ha, evaluated fifteen days after the treatment, damage vs blank
Description: as §1

Chenopodium album [3] = experiment: Post-emergence herbicidal activity; assay type: in vivo; settings: 500 g/ha, evaluated fifteen days after the treatment, damage vs blank
Description: as §1

Abutilon theofrasti [4] = experiment: Pre-emergence herbicidal activity; assay type: in vivo; settings: 500 g/ha, evaluated fifteen days after the treatment, damage vs blank
Description: (§2) Determination of the Herbicidal Activity and Phyto-Toxicity in Pre-Emergence The herbicidal activity of the compounds of the invention in pre-emergence was evaluated according to the following operative procedures. The plant species of interest (weeds or crops) were sown in pots with an upper diameter of 10 cm, a height of 10 cm and containing sandy soil. 10 pots were used for each plant species. Water was added to each pot in such a quantity as to germinate the seeds. The pots were divided into two groups, each containing 5 pots for each weed or crop. After one day from the sowing, the first set of pots was treated with a hydro-acetonic dispersion containing acetone at 10% in volume, the product under evaluation at the desired concentration and Tween 20 at 0.5%. The second set was treated with a hydro-acetonic solution only, containing acetone at 10% in volume and Tween 20 at 0.5%, and was used as comparison (blank). All pots were kept under observation in a conditioned environment under the following conditions: • temperature: 24° C.; • relative humidity: 60%; • photoperiod: 16 hours; • light intensity: 10000 lux. The pots were uniformly watered in order to ensure a sufficient humidity degree for a good development of the plants. Fifteen days after the treatment, the herbicidal activity was evaluated on the basis of the following values, which refer to the damage percentage tested on the treated plants, with respect to the non-treated plants (blank): [table]

Ipomea purpurea = experiment: Pre-emergence herbicidal activity; assay type: in vivo; settings: 500 g/ha, evaluated fifteen days after the treatment, damage vs blank
Description: as §2

Portulaca oleracea [5] = experiment: Pre-emergence herbicidal activity; assay type: in vivo; settings: 500 g/ha, evaluated fifteen days after the treatment, damage vs blank
Description: as §2

Chenopodium album [6] = experiment: Pre-emergence herbicidal activity; assay type: in vivo; settings: 500 g/ha, evaluated fifteen days after the treatment, damage vs blank
Description: as §2

Amaranthus retroflexus = experiment: Pre-emergence herbicidal activity; assay type: in vivo; settings: 500 g/ha, evaluated fifteen days after the treatment, damage vs blank
Description: as §2

Solanum nigrum [7] = experiment: Pre-emergence herbicidal activity; assay type: in vivo; settings: 500 g/ha, evaluated fifteen days after the treatment, damage vs blank
Description: as §2

Stellaria media [8] = experiment: Pre-emergence herbicidal activity; assay type: in vivo; settings: 500 g/ha, evaluated fifteen days after the treatment, damage vs blank
Description: as §2

Galium aparine [9] = experiment: Post-emergence herbicidal activity; assay type: in vivo; settings: 500 g/ha, evaluated fifteen days after the treatment, damage vs blank
Description: as §1

Portulaca oleracea [10] = experiment: Post-emergence herbicidal activity; assay type: in vivo; settings: 500 g/ha, evaluated fifteen days after the treatment, damage vs blank
Description: as §1

Stellaria media [11] = experiment: Post-emergence herbicidal activity; assay type: in vivo; settings: 500 g/ha, evaluated fifteen days after the treatment, damage vs blank
Description: as §1

Galium aparine [12] = experiment: Pre-emergence herbicidal activity; assay type: in vivo; settings: 500 g/ha, evaluated fifteen days after the treatment, damage vs blank
Description: as §2

Cc1noc(C(C(=O)c2ccc(S(C)(=O)=O)cc2Cl)C(=O)C2CC2)n1 (stereo not shown) [Compound N^o 11, 1-[2-chloro-4-(methylsulphonyl)phenyl]-3-cyclopropyl-2-(3-methyl-1,2,4-oxadiazol-5-yl)propane-1,3-dione]
5 (91% damage - death of the plant.): Post-emergence herbicidal activity AT (Abutilon theofrasti [1]) | Post-emergence herbicidal activity SN (Solanum nigrum [2]) | Post-emergence herbicidal activity CA (Chenopodium album [3]) | Pre-emergence herbicidal activity AT (Abutilon theofrasti [4]) | Pre-emergence herbicidal activity IP (Ipomea purpurea) | Pre-emergence herbicidal activity PO (Portulaca oleracea [5]) | Pre-emergence herbicidal activity CA (Chenopodium album [6])

Cn1nnnc1C(C(=O)c1ccc(S(C)(=O)=O)cc1Cl)C(=O)C1CC1 (stereo not shown) [Compound N^o 7, 1-[2-chloro-4-(methylsulphonyl)phenyl]-3-cyclopropyl-2-(1-methyl-1H-tetrazol-5-yl)propane-1,3-dione]
5 (91% damage - death of the plant.): Pre-emergence herbicidal activity AT (Abutilon theofrasti [4]) | Pre-emergence herbicidal activity AR (Amaranthus retroflexus) | Pre-emergence herbicidal activity PO (Portulaca oleracea [5]) | Pre-emergence herbicidal activity SN (Solanum nigrum [7]) | Pre-emergence herbicidal activity CA (Chenopodium album [6]) | Pre-emergence herbicidal activity SM (Stellaria media [8])

Cn1nnc(C(C(=O)c2ccc(S(C)(=O)=O)cc2Cl)C(=O)C2CC2)n1 (stereo not shown) [Compound N^o 6, 1-[2-chloro-4-(methylsulphonyl)phenyl]-3-cyclopropyl-2-(2-methyl-2H-tetrazol-5-yl)propane-1,3-dione]
5 (91% damage - death of the plant.): Post-emergence herbicidal activity AT (Abutilon theofrasti [1]) | Post-emergence herbicidal activity GA (Galium aparine [9]) | Post-emergence herbicidal activity PO (Portulaca oleracea [10]) | Post-emergence herbicidal activity SN (Solanum nigrum [2]) | Post-emergence herbicidal activity CA (Chenopodium album [3]) | Post-emergence herbicidal activity SM (Stellaria media [11]) | Pre-emergence herbicidal activity AT (Abutilon theofrasti [4]) | Pre-emergence herbicidal activity GA (Galium aparine [12]) | Pre-emergence herbicidal activity AR (Amaranthus retroflexus) | Pre-emergence herbicidal activity IP (Ipomea purpurea) | Pre-emergence herbicidal activity PO (Portulaca oleracea [5]) | Pre-emergence herbicidal activity SN (Solanum nigrum [7]) | Pre-emergence herbicidal activity CA (Chenopodium album [6]) | Pre-emergence herbicidal activity SM (Stellaria media [8])

CS(=O)(=O)c1ccc(C(=O)C(C(=O)C2CC2)c2nnc(C(F)(F)F)s2)c(Cl)c1 (stereo not shown) [Compound No 2918, 1-[2-chloro-4-(thylsulphonyl)phenyl]-3-cyclopropyl-2-(5-trifluoromethyl-1,3,4-thiadiazol-2-yl)propane-1,3-dione]
185 °C: melting point

CS(=O)(=O)c1ccc(C(=O)C(C(=O)C(F)(F)F)c2ccccn2)c(Cl)c1 (stereo not shown) [Compound N-616, 1-[2-chloro-4-(methylsuiphonyl)phenyl]-2-(pyridin-2-yl)-4,4,4-trifluorobutane-1,3-dione]
189 °C: melting point

CS(=O)(=O)c1ccc(C(=O)C(C(=O)C2CC2)c2ccc([N+](=O)[O-])cc2[N+](=O)[O-])c(Cl)c1 (stereo not shown)
67 °C: melting point

CS(=O)(=O)c1ccc(C(=O)C(C(=O)C2CC2)n2cncn2)c(Cl)c1 (stereo not shown) [Compound No 460, 1-[2-chloro-4-(methylsulphonyl)phenyl]-3-cyclopropyl-2-(1,2,4-triazol-1-yl)propane-1,3-dione]
162 °C: melting point
